Source: US8906904B2, “Alkoxy pyrazoles as soluble guanylate cyclase activators” (Boehringer Ingelheim International GmbH, priority 2012, dated 2014)
≈ marks a conversion by molar mass, not a printed value.

How the values were obtained:
[1] = Assessment of solubility (McIlvaine buffers, 24 h shake, UPLC-UV); type: physicochemical; details: kinetic from dmso stock
In short: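 Compounds from 10 mM DMSO stocks were shaken for 24 h at room temperature in McIlvaine buffers at pH 2.2, 4.5 and 6.8 (2.5% v/v DMSO final), then filtered. Filtrates were quantified by UPLC-UV at 254 nm against a 50:50 acetonitrile/water reference assumed fully dissolved, as a single determination.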

[2] = human liver microsome (HLM) metabolic stability assay; type: in vitro ADME; details: human liver microsomes; % hepatic blood flow calculated from t1/2
In short: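 Compounds at 1 uM incubated with human liver microsomes plus NADPH at 37° C., sampled at 0, 5, 15, 30 and 60 min into cold acetonitrile and quantified by LC/MS/MS. t½ from the slope of ln % remaining vs time; CLint, CLh and % Qh derived from it (n=1).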

solubility at 24 h ([1]; pH 2.2, aqueous buffer)	solubility at 24 h ([1]; pH 4.5, aqueous buffer)	solubility at 24 h ([1]; pH 6.8, aqueous buffer)	HLM (% Qh) [2]	SMILES
94 µg/mL (≈ 161 µM)	75 µg/mL (≈ 129 µM)	74 µg/mL (≈ 127 µM)	<24 % Qh	CCc1cc(COc2c(C)cccc2-c2cccc(-n3ncc(C(=O)O)c3OC)n2)cc2c1CN(C1CCOCC1)CC2 [Compound 248]
91 µg/mL (≈ 160 µM)	71 µg/mL (≈ 125 µM)	72 µg/mL (≈ 127 µM)	25 % Qh	COc1c(C(=O)O)cnn1-c1cccc(-c2cccc(C)c2OCc2cc(C)c3c(c2)CCN(CC2(C)COC2)C3)n1 [Compound 239]
100 µg/mL (≈ 174 µM)	80 µg/mL (≈ 139 µM)	80 µg/mL (≈ 139 µM)	29 % Qh	COc1c(C(=O)O)cnn1-c1cccc(-c2cccc(C)c2OCc2ccc3c(c2)CCN(CC2CC(F)(F)C2)C3)n1 [Compound 26]
97 µg/mL (≈ 173 µM)	62 µg/mL (≈ 111 µM)	85 µg/mL (≈ 152 µM)	31 % Qh	COc1c(C(=O)O)cnn1-c1cccc(-c2cccc(C)c2OCc2ccc3c(c2Cl)CCN(C2COC2)C3)n1 [Compound 17]
100 µg/mL (≈ 170 µM)	81 µg/mL (≈ 138 µM)	73 µg/mL (≈ 124 µM)	34 % Qh	COc1c(C(=O)O)cnn1-c1cccc(-c2cccc(C)c2OCc2cc(F)c3c(c2)CCN(C[C@H]2CCCCO2)C3)n1 [Compound 229]
95 µg/mL (≈ 170 µM)	72 µg/mL (≈ 129 µM)	68 µg/mL (≈ 122 µM)	38 % Qh	COc1c(C(=O)O)cnn1-c1cccc(-c2cccc(C)c2OCc2ccc3c(c2Cl)CCN(C2CCC2)C3)n1 [Compound 20]
110 µg/mL (≈ 198 µM)	79 µg/mL (≈ 142 µM)	78 µg/mL (≈ 141 µM)	<24 % Qh	COc1c(C(=O)O)cnn1-c1cccc(-c2cccc(C)c2OCc2cc(C)c3c(c2)CCN(C2CCOC2)C3)n1 (centres unmarked) [Compound 242]
110 µg/mL (≈ 187 µM)	79 µg/mL (≈ 134 µM)	78 µg/mL (≈ 133 µM)	28 % Qh	COc1c(C(=O)O)cnn1-c1cccc(-c2cccc(C)c2OCc2ccc3c(c2C)CCN(CC2CC(F)(F)C2)C3)n1 [Compound 29]
110 µg/mL (≈ 190 µM)	81 µg/mL (≈ 140 µM)	86 µg/mL (≈ 148 µM)	<24 % Qh	COc1c(C(=O)O)cnn1-c1cccc(-c2cccc(C)c2OCc2cc(C#N)c3c(c2)CCN(C2CCOCC2)C3)n1 [Compound 250]
91 µg/mL (≈ 169 µM)	38 µg/mL (≈ 70.5 µM)	39 µg/mL (≈ 72.4 µM)	29 % Qh	COc1c(C(=O)O)cnn1-c1cccc(-c2cccc(C)c2OCc2ccc3c(c2)CCN(CC2CCC2)C3)n1 [Compound 25]
77 µg/mL (≈ 135 µM)	55 µg/mL (≈ 96.7 µM)	52 µg/mL (≈ 91.4 µM)	<24 % Qh	COc1c(C(=O)O)cnn1-c1cccc(-c2cccc(C)c2OCc2ccc3c(c2C)CCN(C2CCCOC2)C3)n1 (centres unmarked) [Compound 238]
82 µg/mL (≈ 137 µM)	72 µg/mL (≈ 120 µM)	73 µg/mL (≈ 122 µM)	<24 % Qh	COc1c(C(=O)O)cnn1-c1cccc(-c2cccc(C)c2OCc2ccc3c(c2C)CCN(C[C@@H]2COCCO2)CC3)n1 [Compound 204]
97 µg/mL (≈ 169 µM)	68 µg/mL (≈ 118 µM)	73 µg/mL (≈ 127 µM)	33 % Qh	COc1c(C(=O)O)cnn1-c1cccc(-c2cccc(C)c2OCc2ccc3c(c2Cl)CCN(C2CCOC2)C3)n1 (centres unmarked) [Compound 22]
96 µg/mL (≈ 163 µM)	70 µg/mL (≈ 119 µM)	75 µg/mL (≈ 127 µM)	29 % Qh	COc1c(C(=O)O)cnn1-c1cccc(-c2cccc(C)c2OCc2ccc3c(c2Cl)CCN(CC2(C)COC2)C3)n1 [Compound 19]
120 µg/mL (≈ 206 µM)	100 µg/mL (≈ 172 µM)	93 µg/mL (≈ 160 µM)	<24 % Qh	COc1c(C(=O)O)cnn1-c1cccc(-c2cccc(C)c2OCc2ccc3c(c2C)CCN(C[C@@H]2CCCCO2)C3)n1 [Compound 198]
89 µg/mL (≈ 153 µM)	76 µg/mL (≈ 130 µM)	76 µg/mL (≈ 130 µM)	<24 % Qh	COc1c(C(=O)O)cnn1-c1cccc(-c2cccc(C)c2OCc2ccc3c(c2C)CCN(C2CCOCC2)CC3)n1 [Compound 184]
89 µg/mL (≈ 153 µM)	73 µg/mL (≈ 125 µM)	75 µg/mL (≈ 129 µM)	26 % Qh	CCOc1c(C(=O)O)cnn1-c1cccc(-c2cccc(C)c2OCc2ccc3c(c2C)CCN(C[C@@H]2CCOC2)C3)n1 [Compound 189]
99 µg/mL (≈ 182 µM)	79 µg/mL (≈ 146 µM)	82 µg/mL (≈ 151 µM)	<24 % Qh	COCC(C)N1CCc2cc(COc3c(C)cccc3-c3cccc(-n4ncc(C(=O)O)c4OC)n3)ccc2C1 (centres unmarked) [Compound 23]
85 µg/mL (≈ 146 µM)	71 µg/mL (≈ 122 µM)	73 µg/mL (≈ 125 µM)	<24 % Qh	COc1c(C(=O)O)cnn1-c1cccc(-c2cccc(C)c2OCc2ccc3c(c2C)CCN(C[C@H]2CCCO2)CC3)n1 [Compound 222]
90 µg/mL (≈ 154 µM)	73 µg/mL (≈ 125 µM)	77 µg/mL (≈ 132 µM)	25 % Qh	CCOc1c(C(=O)O)cnn1-c1cccc(-c2cccc(C)c2OCc2ccc3c(c2C)CCN([C@@H]2CCOC2)CC3)n1 [Compound 227]
98 µg/mL (≈ 168 µM)	83 µg/mL (≈ 142 µM)	86 µg/mL (≈ 148 µM)	52 % Qh	CCOc1c(C(=O)O)cnn1-c1cccc(-c2cccc(C)c2OCc2ccc3c(c2C)CCN(C[C@H]2CCO2)CC3)n1 [Compound 226]
110 µg/mL (≈ 189 µM)	83 µg/mL (≈ 142 µM)	80 µg/mL (≈ 137 µM)	<24 % Qh	CCOc1c(C(=O)O)cnn1-c1cccc(-c2cccc(C)c2OCc2cc(C)c3c(c2)CCN([C@@H]2CCCOC2)C3)n1 [Compound 195]
95 µg/mL (≈ 176 µM)	71 µg/mL (≈ 131 µM)	81 µg/mL (≈ 150 µM)	<24 % Qh	COc1c(C(=O)O)cnn1-c1cccc(-c2cccc(C)c2OCc2ccc3c(c2C)CCN(C2COC2)C3)n1 [Compound 16]
96 µg/mL (≈ 165 µM)	78 µg/mL (≈ 134 µM)	81 µg/mL (≈ 139 µM)	44 % Qh	CCOc1c(C(=O)O)cnn1-c1cccc(-c2cccc(C)c2OCc2ccc3c(c2C)CCN(C[C@@H]2CCO2)CC3)n1 [Compound 228]
94 µg/mL (≈ 165 µM)	55 µg/mL (≈ 96.7 µM)	52 µg/mL (≈ 91.4 µM)	<24 % Qh	COc1c(C(=O)O)cnn1-c1cccc(-c2cccc(C)c2OCc2cc(C)c3c(c2)CCN(C2CCCOC2)C3)n1 (centres unmarked) [Compound 237]
100 µg/mL (≈ 175 µM)	72 µg/mL (≈ 126 µM)	94 µg/mL (≈ 165 µM)	<24 % Qh	CCOc1c(C(=O)O)cnn1-c1cccc(-c2cccc(C)c2OCc2ccc3c(c2OC)CCN(C2COC2)C3)n1 [Compound 221]
94 µg/mL (≈ 168 µM)	73 µg/mL (≈ 131 µM)	62 µg/mL (≈ 111 µM)	<24 % Qh	COc1c(C(=O)O)cnn1-c1cccc(-c2cccc(C)c2OCc2ccc3c(c2F)CCN([C@@H]2CCOC2)C3)n1 [Compound 252]
100 µg/mL (≈ 167 µM)	77 µg/mL (≈ 129 µM)	86 µg/mL (≈ 144 µM)	<24 % Qh	CCOc1c(C(=O)O)cnn1-c1cccc(-c2cccc(C)c2OCc2ccc3c(c2OC)CCN(C2CCOCC2)C3)n1 [Compound 220]
85 µg/mL (≈ 153 µM)	66 µg/mL (≈ 119 µM)	72 µg/mL (≈ 130 µM)	<24 % Qh	CCOc1c(C(=O)O)cnn1-c1cccc(-c2cccc(C)c2OCc2ccc3c(c2)CCN(C2COC2)CC3)n1 [Compound 213]
